Data reported in ChEMBL document CHEMBL3217509, “Discovery of an HIV integrase inhibitor with an excellent resistance profile” (Medchemcomm, 2013).

What was measured:
[1] = Intrinsic clearance in human hepatocytes assessed assessed per million of cells by LC-MS/MS analysis; type: ADME, cell-based, Hepatocyte; conditions: read-out: CLH
[2] = Intrinsic clearance in human liver microsomes assessed per mg of protein by LC-MS/MS analysis in presence of UDPGA; type: ADME; conditions: read-out: CLH
[3] = test system: Human immunodeficiency virus 1; assay: Antiviral activity against HIV1 NL4-3 infected in human MT2 cells after 3 days by human JC53BL cell-based beta-galactosidase reporter gene assay; type: functional, organism-based; conditions: Human immunodeficiency virus 1, NL4-3, JC53BL, 72 h
[4] = Aqueous solubility of the compound at pH 7.4; type: physicochemical; conditions: buffer
[5] = Intrinsic clearance in human liver microsomes assessed per mg of protein by LC-MS/MS analysis; type: ADME; conditions: read-out: CLH

Row | hepatocyte CLint [1] | microsomal CLint [2] | IC50 [3] | solubility [4] | microsomal CLint [5] | Compound
1 | 5.9 µL/min/1e6 cells | 3.5 µL/min/mg | 6 nM | < 1 µg/mL | 32 µL/min/mg | COCCNC(=O)c1c(O)c2ncc3c(ccn3Cc3ccc(F)cc3)c2[nH]c1=O
2 | 2.9 µL/min/1e6 cells | < 3.5 µL/min/mg | 1 nM | < 1 µg/mL | 17.3 µL/min/mg | O=C(NCCO)c1c(O)c2ncc3c(ccn3Cc3ccc(F)cc3)c2[nH]c1=O
